From US12521393B2, “Cytotoxicity targeting chimeras for CCR2-expressing cells” (GLAXOSMITHKLINE INTELLECTUAL PROPERTY DEVELOPMENT LIMITED, priority 2021, dated 2026) come the findings set out here.

The structures appear in SMILES notation. Counter-ions that a name gives are not always drawn.

In the assay the test system is endogenous target monocytes in human PBMC. The experiment in a line: PBMC ex vivo monocyte depletion flow cytometry assay (Example 200). Type of assay: cell-based. The settings on record: with anti-cotinine antibody (SEQ ID NO: 11/12), 18-24 hours, EC50 in molar, read-out: Ex Vivo Depletion Assay pEC50 (converted). In outline: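 Monocyte depletion is reported as pEC50, averaged or given individually across runs, and read by flow cytometry staining CD45, CD14 and CD4 with a viability dye. Compounds, diluted four-fold over 11 points from 1 mM DMSO stocks, were combined with 30 μg/mL Fc-enhanced anti-cotinine antibody and human PBMC, then incubated 18-24 h at 37° C.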
(In general: A flow cytometer gives signals particle by particle.)

Consider `CC(C)N(C)[C@@H]1CC[C@H](N2CC[C@H](Nc3ncnc4ccc(C(F)(F)F)cc34)C2=O)[C@H](NC(=O)[C@H]2CC[C@H](N3CCN(C(=O)CCOCCOCCNC(=O)[C@H]4CC(=O)N(C)[C@@H]4c4cccnc4)CC3)CC2)C1` [Example 96, (2S,3S)-N-(2-(2-(3-(4-((1R,4r)-4-(((1R,2S,5R)-5-(Isopropyl(methyl)amino)-2-((S)-2-oxo-3-((6-(trifluoromethyl)quinazolin-4-yl)amino)pyrrolidin-1-yl)cyclohexyl)carbamoyl)cyclohexyl)piperazin-1-yl)-3-oxopropoxy)ethoxy)ethyl)-1-methyl-5-oxo-2-(pyridin-3-yl)pyrrolidine-3-carboxamide], for which the EC50 is 1 nM.

As to `CC(C)N(C)[C@@H]1CC[C@H](N2CC[C@H](Nc3ncnc4ccc(C(F)(F)F)cc34)C2=O)[C@H](NC(=O)[C@H]2CC[C@@H](N3CCC(C(=O)NCCOCCOCCNC(=O)[C@H]4CC(=O)N(C)[C@@H]4c4cccnc4)C(F)(F)C3)CC2)C1` (stereo partly drawn) [Example 132, 3,3-Difluoro-1-((1S,4s)-4-(((1R,2S,5R)-5-(isopropyl(methyl)amino)-2-((S)-2-oxo-3-((6-(trifluoromethyl)quinazolin-4-yl)amino)pyrrolidin-1-yl)cyclohexyl)carbamoyl)cyclohexyl)-N-(2-(2-(2-((2S,3S)-1-methyl-5-oxo-2-(pyridin-3-yl)pyrrolidine-3-carboxamido)ethoxy)ethoxy)ethyl)piperidine-4-carboxamide], the EC50 was 0.631 nM.

As for `CC(C)N(C)[C@@H]1CC[C@H](N2CC[C@H](Nc3ncnc4ccc(C(F)(F)F)cc34)C2=O)[C@H](NC(=O)c2cnn(C3CCN(C(=O)CCCCCCCCCCNC(=O)[C@H]4CC(=O)N(C)[C@@H]4c4cccnc4)CC3)c2)C1` [Example 156, N-((1R,2S,5R)-5-(Isopropyl(methyl)amino)-2-((S)-2-oxo-3-((6-(trifluoromethyl)quinazolin-4-yl)amino)pyrrolidin-1-yl)cyclohexyl)-1-(1-(11-((2S,3S)-1-methyl-5-oxo-2-(pyridin-3-yl)pyrrolidine-3-carboxamido)undecanoyl)piperidin-4-yl)-1H-pyrazole-4-carboxamide], the EC50 was 0.794 nM. Under `CC(C)N(C)[C@@H]1CC[C@H](N2CC[C@H](Nc3ncnc4ccc(C(F)(F)F)cc34)C2=O)[C@H](NC(=O)[C@H]2C[C@H](NC(=O)CCO[C@H]3CC[C@H](OCCNC(=O)[C@H]4CC(=O)N(C)[C@@H]4c4cccnc4)CC3)C2)C1` [Example 117] stands 3.98 nM.

In the case of `CC(C)N(C)[C@@H]1CC[C@H](N2CC[C@H](Nc3ncnc4ccc(C(F)(F)F)cc34)C2=O)[C@H](NC(=O)[C@H]2CC[C@H](N3CCN(CCOCCOCCNC(=O)[C@H]4CC(=O)N(C)[C@@H]4c4cccnc4)CC3)CC2)C1` [Example 190, (2S,3S)-N-(2-(2-(2-(4-((1R,4r)-4-(((1R,2S,5R)-5-(isopropyl(methyl)amino)-2-((S)-2-oxo-3-((6-(trifluoromethyl)quinazolin-4-yl)amino)pyrrolidin-1-yl)cyclohexyl)carbamoyl)cyclohexyl)piperazin-1-yl)ethoxy)ethoxy)ethyl)-1-methyl-5-oxo-2-(pyridin-3-yl)pyrrolidine-3-carboxamide], the EC50 is 3.16 nM. Consider `CC(C)N(C)[C@@H]1CC[C@H](N2CC[C@H](Nc3ncnc4ccc(C(F)(F)F)cc34)C2=O)[C@H](NC(=O)C2CCN(C3CCN(C(=O)CCCCCNC(=O)[C@H]4CC(=O)N(C)[C@@H]4c4cccnc4)CC3)CC2)C1` [Example 87, N-((1R,2S,5R)-5-(Isopropyl(methyl)amino)-2-((S)-2-oxo-3-((6-(trifluoromethyl)quinazolin-4-yl)amino)pyrrolidin-1-yl)cyclohexyl)-1'-(6-((2S,3S)-1-methyl-5-oxo-2-(pyridin-3-yl)pyrrolidine-3-carboxamido)hexanoyl)-[1,4'-bipiperidine]-4-carboxamide], for which the EC50 is 0.398 nM. Then `CC(C)N(C)[C@@H]1CC[C@H](N2CC[C@H](Nc3ncnc4ccc(C(F)(F)F)cc34)C2=O)[C@H](NC(=O)c2ccnc(NCCOCCOCCOCCOCCNC(=O)[C@H]3CC(=O)N(C)[C@@H]3c3cccnc3)c2)C1` [Example 126, N-((1R,2S,5R)-5-(Isopropyl(methyl)amino)-2-((S)-2-oxo-3-((6-(trifluoromethyl)quinazolin-4-yl)amino)pyrrolidin-1-yl)cyclohexyl)-2-((1-((2S,3S)-1-methyl-5-oxo-2-(pyridin-3-yl)pyrrolidin-3-yl)-1-oxo-5,8,11,14-tetraoxa-2-azahexadecan-16-yl)amino)isonicotinamide, 3Trifluoroacetic acid salt], with 2.51 nM; and `CC(C)N(C)[C@@H]1CC[C@H](N2CC[C@H](Nc3ncnc4ccc(C(F)(F)F)cc34)C2=O)[C@H](NC(=O)CCOCCOCCNC(=O)[C@@H]2CCCN2CCOCCNC(=O)[C@H]2CC(=O)N(C)[C@@H]2c2cccnc2)C1` [Example 118, (S)-N-(2-(2-(3-(((1R,2S,5R)-5-(Isopropyl(methyl)amino)-2-((S)-2-oxo-3-((6-(trifluoromethyl)quinazolin-4-yl)amino)pyrrolidin-1-yl)cyclohexyl)amino)-3-oxopropoxy)ethoxy)ethyl)-1-(2-(2-((2S,3S)-1-methyl-5-oxo-2-(pyridin-3-yl)pyrrolidine-3-carboxamido)ethoxy)ethyl)pyrrolidine-2-carboxamide], with 15.8 nM. With `CC(C)N(C)[C@@H]1CC[C@H](N2CC[C@H](Nc3ncnc4ccc(C(F)(F)F)cc34)C2=O)[C@H](NC(=O)c2cccc(NCCOCCOCCOCCOCCNC(=O)[C@H]3CC(=O)N(C)[C@@H]3c3cccnc3)n2)C1` [Example 123, N-((1R,2S,5R)-5-(Isopropyl(methyl)amino)-2-((S)-2-oxo-3-((6-(trifluoromethyl)quinazolin-4-yl)amino)pyrrolidin-1-yl)cyclohexyl)-6-((1-((2S,3S)-1-methyl-5-oxo-2-(pyridin-3-yl)pyrrolidin-3-yl)-1-oxo-5,8,11,14-tetraoxa-2-azahexadecan-16-yl)amino)picolinamide], the EC50 is 15.8 nM. As to `CC(C)N(C)[C@@H]1CC[C@H](N2CC[C@H](Nc3ncnc4ccc(C(F)(F)F)cc34)C2=O)[C@H](NC(=O)[C@H]2CC[C@H](c3ccc(C(=O)NCCOCCOCCNC(=O)[C@H]4CC(=O)N(C)[C@@H]4c4cccnc4)nc3)CC2)C1` [Example 141, 5-((1R,4r)-4-(((1R,2S,5R)-5-(Isopropyl(methyl)amino)-2-((S)-2-oxo-3-((6-(trifluoromethyl)qinazolin-4-yl)amino)pyrrolidin-1-yl)cyclohexyl)carbamoyl)cyclohexyl)-N-(2-(2-(2-((2S,3S)-1-methyl-5-oxo-2-(pyridin-3-yl)pyrrolidine-3-carboxamido)ethoxy)ethoxy)ethyl)picolinamide], the EC50 is 6.31 nM.

For the molecule `CC(C)N(C)[C@@H]1CC[C@H](N2CC[C@H](Nc3ncnc4ccc(C(F)(F)F)cc34)C2=O)[C@H](NC(=O)[C@H]2CC[C@@H](N3CCN(CCCCCCCCNC(=O)[C@H]4CC(=O)N(C)[C@@H]4c4cccnc4)CC3)CC2)C1` [Example 145, (2S,3S)-N-(8-(4-((1S,4s)-4-(((1R,2S,5R)-5-(Isopropyl(methyl)amino)-2-((S)-2-oxo-3-((6-(trifluoromethyl)quinazolin-4-yl)amino)pyrrolidin-1-yl)cyclohexyl)carbamoyl)cyclohexyl)piperazin-1-yl)octyl)-1-methyl-5-oxo-2-(pyridin-3-yl)pyrrolidine-3-carboxamide], the EC50 was 1.26 nM. Take `CC(C)N(C)[C@@H]1CC[C@H](N2CC[C@H](Nc3ncnc4ccc(C(F)(F)F)cc34)C2=O)[C@H](NC(=O)CCCOCC23CCC(COCCNC(=O)[C@H]4CC(=O)N(C)[C@@H]4c4cccnc4)(CC2)CC3)C1` [Example 59]: the EC50 was 1.58 nM.

As for `CC(C)N(C)[C@@H]1CC[C@H](N2CC[C@H](Nc3ncnc4ccc(C(F)(F)F)cc34)C2=O)[C@H](NC(=O)[C@H]2CC[C@@H](NC(=O)CCOCCNC(=O)CCOCCCNC(=O)[C@H]3CC(=O)N(C)[C@@H]3c3cccnc3)CC2)C1` [Example 101, (2S,3S)-N-(3-(3-((2-(3-(((1S,4s)-4-(((1R,2S,5R)-5-(Isopropyl(methyl)amino)-2-((S)-2-oxo-3-((6-(trifluoromethyl)quinazolin-4-yl)amino)pyrrolidin-1-yl)cyclohexyl)carbamoyl)cyclohexyl)amino)-3-oxopropoxy)ethyl)amino)-3-oxopropoxy)propyl)-1-methyl-5-oxo-2-(pyridin-3-yl)pyrrolidine-3-carboxamide], the EC50 was 0.631 nM.

Turning to `CC(C)N(C)[C@@H]1CC[C@H](N2CC[C@H](Nc3ncnc4ccc(C(F)(F)F)cc34)C2=O)[C@H](NC2CCC(C(=O)NCCOCCOCCNC(=O)[C@H]3CC(=O)N(C)[C@@H]3c3cccnc3)CC2)C1` (stereo partly drawn) [Example 68, (2S,3S)-N-(2-(2-(2-(4-(((1R,2S,5R)-5-(Isopropyl(methyl)amino)-2-((S)-2-oxo-3-((6-(trifluoromethyl)quinazolin-4-yl)amino)pyrrolidin-1-yl)cyclohexyl)amino)cyclohexane-1-carboxamido)ethoxy)ethoxy)ethyl)-1-methyl-5-oxo-2-(pyridin-3-yl)pyrrolidine-3-carboxamide], the EC50 was 100000 nM. For `CC(C)N(C)[C@@H]1CC[C@H](N2CC[C@H](Nc3ncnc4ccc(C(F)(F)F)cc34)C2=O)[C@H](NC(=O)COCCCCCCCCCOCCCCCCCNC(=O)[C@H]2CC(=O)N(C)[C@@H]2c2cccnc2)C1` [Example 153, (2S,3S)-N-(7-((9-(2-(((1R,2S,5R)-5-(Isopropyl(methyl)amino)-2-((S)-2-oxo-3-((6-(trifluoromethyl)quinazolin-4-yl)amino)pyrrolidin-1-yl)cyclohexyl)amino)-2-oxoethoxy)nonyl)oxy)heptyl)-1-methyl-5-oxo-2-(pyridin-3-yl)pyrrolidine-3-carboxamide], the EC50 was 0.631 nM.
